Where a name gives a salt, the structure may show the parent alone. Read-outs that look alike come from different tables or passages of the source.
Target: T1, recombinant IRAK-4 kinase (Homo sapiens, UniProt Q9NWZ3)
T1 construct: purchased Millipore, USA
T1 sequence (Q9NWZ3 1-460): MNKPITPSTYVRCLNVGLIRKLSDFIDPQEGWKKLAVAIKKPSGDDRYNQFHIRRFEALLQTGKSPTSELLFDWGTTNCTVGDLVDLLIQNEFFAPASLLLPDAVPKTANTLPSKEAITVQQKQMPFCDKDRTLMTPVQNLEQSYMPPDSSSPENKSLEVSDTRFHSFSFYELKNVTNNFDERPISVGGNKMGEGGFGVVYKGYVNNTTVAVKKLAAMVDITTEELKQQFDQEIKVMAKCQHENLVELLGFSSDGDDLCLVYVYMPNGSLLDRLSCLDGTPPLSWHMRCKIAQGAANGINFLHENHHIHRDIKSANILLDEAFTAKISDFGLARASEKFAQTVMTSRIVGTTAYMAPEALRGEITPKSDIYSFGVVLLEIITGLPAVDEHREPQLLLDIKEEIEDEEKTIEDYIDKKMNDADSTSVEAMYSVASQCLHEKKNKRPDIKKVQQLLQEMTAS
Experiment: IRAK-4 Biochemical Assay (TR-FRET, percent inhibition)
Protocol: Compounds were tested for their potential to inhibit IRAK-4 enzyme in a TR-FRET assay using recombinant IRAK-4 kinase from Millipore, USA. The assay buffer was 50 mM Tris-HCl pH 7.5, 20 mM MgCl2, 1 mM EGTA, 2 mM DTT, 3 mM MnCl2 and 0.01% Tween 20.5 ng of IRAK-4 kinase was used for the assay. After pre-incubation of enzyme with test compound for 30 minutes at room temperature, a substrate mixture containing 100 nM Biotin Histone H3 (Millipore, USA) and 20 μM ATP (Sigma, USA) was added and the reaction was incubated for 30 min. Post incubation, the reaction was stopped by the addition of stop mix containing 40 mM EDTA, 1 nM of Europium-Anti-Phospho-Histone H3 (Ser10) antibody (Perkin Elmer, USA) and 20 nM SureLight Allophycocyanin-Streptavidin (Perkin Elmer, USA). The fluorescence emission at 615 nm and 665 nm were measured at an excitation of 340 nm and the percent inhibition was estimated from the ratio of the fluorescence intensities [(F665/F615)×10000].

[1] = read-out: % inhibition of IRAK-4 @0.1 μM, compound at 0.1 μM, TR-FRET, 20 μM ATP, 100 nM Biotin Histone H3
[2] = read-out: % inhibition of IRAK-4 @ 1 μM, compound at 1 μM, TR-FRET, 20 μM ATP, 100 nM Biotin Histone H3

| inhibition at 0.1 µM [1] [%] | inhibition at 1 µM [2] [%] | SMILES | inhibition at 0.1 µM (read-out: % inhibition of IRAK-4 @0.1 μM) [%] | inhibition at 1 µM (read-out: % inhibition of IRAK-4 @ 1 μM) [%] |
| --- | --- | --- | --- | --- |
| 92 | 98 | Cc1cc(-c2cccc(C(=O)Nc3cc4sc(N5CCOCC5)nc4nc3N3CCC[C@@H](O)C3)n2)ccn1 [Example 41, (R)-N-(5-(3-hydroxypiperidin-1-yl)-2-morpholinothiazolo[4,5-b]pyridin-6-yl)-2′-methyl-[2,4′-bipyridine]-6-carboxamide] | – | – |
| 94 | 98 | O=C(Nc1cc2sc(N3CCOCC3)nc2nc1N1CCCCC1)c1cccc(N2CC[C@H](O)C2)n1 [Example 42, (S)-6-(3-hydroxypyrrolidin-1-yl)-N-(2-morpholino-5-(piperidin-1-yl)thiazolo[4,5-b]pyridin-6-yl)picolinamide hydrochloride] | – | – |
| 50 | 92 | Cc1nc2nc(N3CCOCC3)sc2cc1NC(=O)c1cccc(N2CCC(O)C2)n1 (stereo not drawn) [Example 43, 6-(3-hydroxypyrrolidin-1-yl)-N-(5-methyl-2-morpholinothiazolo[4,5-b]pyridin-6-yl)picolinamide] | – | – |
| 90 | 96 | O=C(Nc1cc2sc(N3CCOCC3)nc2nc1C(F)(F)F)c1cccc(N2CCC(O)C2)n1 (stereo not drawn) [Example 44, 6-(3-hydroxypyrrolidin-1-yl)-N-(2-morpholino-5-(trifluoromethyl)thiazolo[4,5-b]pyridin-6-yl)picolinamide] | – | – |
| 95 | 97 | O=C(Nc1cc2sc(N3CCOCC3)nc2nc1N1CCCCC1)c1cccc(N2CC3CC2CO3)n1 (stereo not drawn) [Example 45, 6-(2-oxa-5-azabicyclo[2.2.1]heptan-5-yl)-N-(2-morpholino-5-(piperidin-1-yl)thiazolo[4,5-b]pyridin-6-yl)picolinamide] | – | – |
| 75 | 94 | O=C(Nc1cc2sc(N3CCOCC3)nc2nc1N1CCCCC1)c1cccc(NC2CCC(CO)CC2)n1 (stereo not drawn) [Example 46, 6-((4-(hydroxymethyl)cyclohexyl)amino)-N-(2-morpholino-5-(piperidin-1-yl)thiazolo[4,5-b]pyridin-6-yl)picolinamide] | – | – |
| 96 | 100 | COC(=O)C1CN(c2cccc(C(=O)Nc3cc4sc(N5CCOCC5)nc4nc3N3CCCCC3)n2)C(=O)N1 (stereo not drawn) [Example 48, methyl 1-(6-((2-morpholino-5-(piperidin-1-yl)thiazolo[4,5-b]pyridin-6-yl)carbamoyl)pyridin-2-yl)-2-oxoimidazolidine-4-carboxylate] | – | – |
| 79 | 96 | O=C(Nc1cc2sc(N3CCOCC3)nc2nc1N1CCCCC1)c1cccc(N2CC(C(=O)O)NC2=O)n1 (stereo not drawn) [Example 49, 1-(6-((2-morpholino-5-(piperidin-1-yl)thiazolo[4,5-b]pyridin-6-yl)carbamoyl)pyridin-2-yl)-2-oxoimidazolidine-4-carboxylic acid] | – | – |
| 67 | 95 | O=C(Nc1cc2sc(N3CCOCC3)nc2nc1C1CC1)c1cncc(N2CCC(O)C2)n1 (stereo not drawn) [Example 50, N-(5-cyclopropyl-2-morpholinothiazolo[4,5-b]pyridin-6-yl)-6-(3-hydroxypyrrolidin-1-yl)pyrazine-2-carboxamide] | – | – |

The remaining lines, values behind:

| SMILES | inhibition at 0.1 µM [1] [%] | inhibition at 1 µM [2] [%] | inhibition at 0.1 µM (read-out: % inhibition of IRAK-4 @0.1 μM) [%] | inhibition at 1 µM (read-out: % inhibition of IRAK-4 @ 1 μM) [%] |
| --- | --- | --- | --- | --- |
| NCC(=O)N[C@H]1CCN(c2cccc(C(=O)Nc3cc4sc(N5CCOCC5)nc4nc3N3CCCCC3)n2)C1 [Example 27, (S)-6-(3-(2-aminoacetamido)pyrrolidin-1-yl)-N-(2-morpholino-5-(piperidin-1-yl)thiazolo[4,5-b]pyridin-6-yl)picolinamide] | 95 | 97 | – | – |
| O=C(Nc1cc2sc(N3CCOCC3)nc2nc1N1CCC[C@@H](O)C1)c1cccc(N2CC[C@H](O)C2)n1 [Example 28, N-(5-((R)-3-hydroxypiperidin-1-yl)-2-morpholinothiazolo[4,5-b]pyridin-6-yl)-6-((S)-3-hydroxypyrrolidin-1-yl)picolinamide] | 90 | 93 | – | – |
| O=C(Nc1cc2sc(N3CCOCC3)nc2nc1N1CCCCC1)c1cccc(N2CCC[C@H](O)C2)n1 [Example 29, (S)-6-(3-hydroxypiperidin-1-yl)-N-(2-morpholino-5-(piperidin-1-yl)thiazolo[4,5-b]pyridin-6-yl)picolinamide] | 98 | 99 | – | – |
| O=C(Nc1cc2sc(N3CCOCC3)nc2nc1N1CCCCC1)c1cccc(N2CCC[C@@H](O)C2)n1 [Example 30, (R)-6-(3-hydroxypiperidin-1-yl)-N-(2-morpholino-5-(piperidin-1-yl)thiazolo[4,5-b]pyridin-6-yl)picolinamide] | 98 | 99 | – | – |
| COC1CCN(c2cccc(C(=O)Nc3cc4sc(N5CCOCC5)nc4nc3N3CCCCC3)n2)CC1 [Example 31, 6-(4-methoxypiperidin-1-yl)-N-(2-morpholino-5-(piperidin-1-yl)thiazolo[4,5-b]pyridin-6-yl)picolinamide] | 90 | 98 | – | – |
| O=C(Nc1cc2sc(N3CCOCC3)nc2nc1N1CCCCC1)c1cccc(N2CCC(CO)CC2)n1 [Example 32, 6-(4-(hydroxymethyl)piperidin-1-yl)-N-(2-morpholino-5-(piperidin-1-yl)thiazolo[4,5-b]pyridin-6-yl)picolinamide] | 93 | 95 | – | – |
| O=C(Nc1cc2sc(N3CCOCC3)nc2nc1N1CCCCC1)c1cccc(N2CCO[C@@H](CO)C2)n1 [Example 33, (R)-6-(2-(hydroxymethyl)morpholino)-N-(2-morpholino-5-(piperidin-1-yl)thiazolo[4,5-b]pyridin-6-yl)picolinamide] | 95 | 97 | – | – |
| O=C(Nc1cc2sc(N3CCOCC3)nc2nc1N1CCCCC1)c1cccc(N2CC[C@@H](O)C2)n1 [Example 34, (R)-6-(3-hydroxypyrrolidin-1-yl)-N-(2-morpholino-5-(piperidin-1-yl)thiazolo[4,5-b]pyridin-6-yl)picolinamide] | 97 | 99 | – | – |
| O=C(Nc1cc2sc(N3CCOCC3)nc2nc1N1CCCCC1)c1cccc(N2CCC(CCO)CC2)n1 [Example 35, 6-(4-(2-hydroxyethyl)piperidin-1-yl)-N-(2-morpholino-5-(piperidin-1-yl)thiazolo[4,5-b]pyridin-6-yl)picolinamide] | 92 | 95 | – | – |
| NCC(=O)O[C@H]1CCN(c2cccc(C(=O)Nc3cc4sc(N5CCOCC5)nc4nc3N3CCCCC3)n2)C1 [Example 36, (S)-1-(6-((2-morpholino-5-(piperidin-1-yl)thiazolo[4,5-b]pyridin-6-yl)carbamoyl)pyridin-2-yl)pyrrolidin-3-ylglycinate 2,2,2-trifluoroacetate] | 94 | 99 | – | – |
| O=C(Nc1cc2sc(N3CCOCC3)nc2nc1N1CCCCC1)c1cccc(NCC2CCOCC2)n1 [Example 37, N-(2-morpholino-5-(piperidin-1-yl)thiazolo[4,5-b]pyridin-6-yl)-6-(((tetrahydro-2H-pyran-4-yl)methyl)amino)picolinamide] | 75 | 95 | – | – |
| O=C(Nc1cc2sc(N3CCOCC3)nc2nc1N1CCC[C@@H](O)C1)c1cccc(N2CCC(O)CC2)n1 [Example 38, (R)-6-(4-hydroxypiperidin-1-yl)-N-(5-(3-hydroxypiperidin-1-yl)-2-morpholinothiazolo[4,5-b]pyridin-6-yl)picolinamide] | 98 | 99 | – | – |
| O=C(Nc1cc2sc(N3CCOCC3)nc2nc1N1CCC[C@@H](O)C1)c1cccc(N2CCCCCC2)n1 [Example 39, (R)-6-(azepan-1-yl)-N-(5-(3-hydroxypiperidin-1-yl)-2-morpholinothiazolo[4,5-b]pyridin-6-yl)picolinamide] | 83 | 98 | – | – |
| O=C(Nc1cc2sc(N3CCOCC3)nc2nc1N1CCC[C@@H](O)C1)c1cccc(N2CCCCC2)n1 [Example 40, (R)-N-(5-(3-hydroxypiperidin-1-yl)-2-morpholinothiazolo[4,5-b]pyridin-6-yl)-6-(piperidin-1-yl)picolinamide] | 96 | 99 | – | – |
| CCOP(=O)(OCC)O[C@H]1CCN(c2cccc(C(=O)Nc3cc4sc(N5CCOCC5)nc4nc3N3CCCCC3)n2)C1 [Example 47, (S)-diethyl (1-(6-((2-morpholino-5-(piperidin-1-yl)thiazolo[4,5-b]pyridin-6-yl)carbamoyl)pyridin-2-yl)pyrrolidin-3-yl)phosphate] | – | – | 18 | 58 |

Source: patent US20180208605A1, “Substituted Aza Compounds as IRAK-4 Inhibitors” (AURIGENE DISCOVERY TECHNOLOGIES LIMITED, priority 2015, published 2018)
